Data reported in patent US8110217B2, “Sphingomyelin liposomes for the treatment of hyperactive bladder disorders” (priority 2001, dated 2012).
Values joined by “and” are separate entries in the source; they are usually repeats but may differ in a detail not shown here. Identical values can stand only once. “Also recorded” adds a separate entry of the source.

Test system: acute hyperactive bladder
Experiment: Continuous CMG, acute hyperactive bladder model with intravesical PS and KCl (Examples 7-8)
Type: in vivo, female Sprague-Dawley rats
Experimental: An animal model for acute hyperactive bladder in rats was developed using intravesical infusion of PS, an agent used to break down urothelial barrier function and physiological concentrations of KCl.
Continuous CMGs were performed in urethane-anesthetized female rats. The bladder was filled (0.04 ml/min) with normal saline followed by intravesical infusion for a 60 minute period with a test solution comprising either KCl (100 or 500 mM) or PS (10 or 30 mg/ml). Following this, 10 mg/ml PS treated animals were infused intravesically with 100, 300 or 500 mM KCl. Some animals were pretreated with capsaicin ([…], sc) four days before the experiments.
Animal Preparation. The study was performed on 40 female Sprague-Dawley rats weighing 250-300 gm. Animals were anesthetized with 1.2 gm/kg urethane injected subcutaneously. Body temperature was maintained in the physiological range using a heating lamp.
Cystometrogram (CMG). PE-50 tubing (Clay-Adams, Parsippany, N.J.) was inserted into the bladder through the urethra and connected via a three-way stopcock to a pressure transducer and to a syringe pump. This was used for recording intravesical pressure and for infusing solutions into the bladder. A control CMG was performed by slowly filling the bladder with saline (0.04 ml/min) to elicit repetitive voiding. The amplitude, PT, compliance and intercontraction interval (ICI) of reflex bladder contractions were recorded. Pressure threshold (PT) represents the pressure that induces the initial bladder contraction. PT often has been used as a parameter corresponding to afferent nerve activity for the induction of reflex bladder contractions. Measurements in each animal represented the average of 3 to 5 bladder contractions.
After performing control CMGs with saline infusion, three intravesical infusion experiments were performed in parallel: (1) infusion of KCl (100 or 500 mM in saline) for one hour (N=4 in each group); (2) infusion of PS (Sigma Chemical Co.; 30 mg/ml in saline) for one hour (N=6); and (3) infusion of PS (10 mg/ml) for one hour, followed by 100, 300 or 500 mM KCl for one hour (N=6, in each subgroup). In four animals, capsaicin dissolved in a vehicle containing 10% ethanol, 10% TWEEN®80 and 80% physiological saline, at a concentration of 20 mg/ml was given subcutaneously in divided doses on 2 consecutive days. The doses included 25 and 50 mg/kg at a 12-hour interval on the first day and 50 mg/kg on the second day, as previously described (C. L. Cheng et al., 1993, Am. J. Physiol. 265:R132-138). All injections were performed under halothane anesthesia. Four days after the last dosage of capsaicin, the animals were anesthetized and treated with intravesical administration of PS (10 mg/ml) for 1 hour followed by KCl (500 mM) infusion.
Suppression of Micturition Reflex. To evaluate the direct effects of potassium on detrusor muscle, micturition reflex was blocked in 4 animals by either intravenous hexamethonium injection (25 mg/kg) (N=2) or transection of bilateral pelvic nerves (N=2).
Statistical Analysis. Statistical analyses were performed using Student's t test for paired or unpaired data, as applicable, with p<0.05 considered significant. Quantitative data are expressed in Example 8 (below) as means plus or minus standard error.

[1] = 100 mM KCl alone, one hour, N=4
[2] = 100 mM KCl following 10 mg/ml PS, N=6
[3] = 300 mM KCl following 10 mg/ml PS, N=6
[4] = 300 mM KCl following PS 10 mg/ml
[5] = 500 mM KCl alone, one hour, N=4
[6] = 500 mM KCl following 10 mg/ml PS, N=6
[7] = 500 mM KCl following PS 10 mg/ml
[8] = KCl 500 mM 1 hr after one hour PS 10 mg/ml, capsaicin pretreated animals, N=4
[9] = KCl 500 mM 2 hr after one hour PS 10 mg/ml, capsaicin pretreated animals, N=4
[10] = KCl 500 mM following PS 10 mg/ml, micturition reflex suppressed animals
[11] = capsaicin pretreated animals, PS 10 mg/ml then KCl 500 mM, 2 hours of infusion

In the case of `[Cl-].[K+]` [KCl], the Amplitude [1] was 28.2 ± 0.5 cm H2O, the Compliance [1] was 0.205 ± 0.032 ml/cm H2O and the ICI [1] was 13.8 ± 2.0 min. It also gave a PT [1] of 5.9 ± 0.5 cm H2O, an Amplitude [2] of 28.2 ± 3.7 cm H2O and a Compliance [2] of 0.157 ± 0.022 ml/cm H2O. The ICI [2] was 18.8 ± 2.1 min, the PT [2] was 3.0 ± 1.3 cm H2O and the Amplitude [3] was 31.3 ± 0.7 cm H2O. For the same molecule, the Compliance [3] was 0.066 ± 0.012 ml/cm H2O, the ICI [3] was 5.2 ± 1.7 min and the PT [3] was 3.3 ± 0.9 cm H2O. The ICI decrease [4] was 76.9%, the compliance decrease [4] was 60% and the contraction amplitude increase [4] was 23.7%. For the same molecule, the “onset of irritation (delay)” value [4] was 20 to 30 min, the Amplitude [5] was 28.8 ± 1.2 cm H2O and the Compliance [5] was 0.237 ± 0.023 ml/cm H2O. It also gave an ICI [5] of 15.8 ± 2.4 min, a PT [5] of 8.2 ± 0.9 cm H2O and an Amplitude [6] of 29.5 ± 3.4 cm H2O. It also gave a Compliance [6] of 0.075 ± 0.009 ml/cm H2O, an ICI [6] of 3.2 ± 1.3 min and a PT [6] of 5.4 ± 1.0 cm H2O. It also gave an ICI decrease [7] of 82.9%, a compliance decrease [7] of 63.4% and a contraction amplitude increase [7] of 21.4%. For the same molecule, the “onset of irritation (delay)” value [7] was 10 to 15 min, the “PT change” value (300 or 500 mM KCl following PS 10 mg/ml) was “not significantly altered” and the Amplitude [8] was 20.3 ± 0.3 cm H2O. The Compliance [8] was 0.218 ± 0.013 ml/cm H2O, the ICI [8] was 21.3 ± 2.8 min and the PT [8] was 5.8 ± 0.5 cm H2O. For the same molecule, the Amplitude [9] was 16.0 ± 1.7 cm H2O, the Compliance [9] was 0.100 ml/cm H2O and 0.100 ± 0.016 ml/cm H2O and the ICI [9] was 13.1 ± 2.8 min. For the same molecule, the PT [9] was 7.6 ± 1.7 cm H2O, the Compliance [10] was 0.041±0.011 ml/cm H2O and the compliance decrease [10] was 55.9%. The “detrusor muscle / bladder compliance” value [10] was “stimulated the detrusor muscle and decreased bladder compliance”, the “irritative effects / CMG parameters” value (KCl 100 or 500 mM alone) was “not observed; also recorded: not significantly different from those during saline administration” and the ICI decrease [11] was 36%. The compliance decrease [11] was 55%, the “bladder hyperactivity” value (high concentrations of KCl (300/500 mM) following one hour of PS 10 mg/ml) was “induced bladder hyperactivity (decrease ICI)” and the “CMG parameters” value (low concentration KCl (100 mM), one hour, following PS 10 mg/ml) was “did not produce significant changes in the CMG parameters; also recorded: had no effect”.
